Structures can show the parent of a compound that is named as a salt.
Experiments:
[1] = system: Chinese hamster ovary (CHO) cells, drug resistant C5S32; assay: In vitro cytotoxicity / potentiation of Actinomycin D in Chinese hamster ovary cells, drug resistant C5S32 (MTT); assay type: cell-based; conditions: 96 h, fraction of Act D alone (1.00)
[2] = as above; assay type: cell-based; conditions: hamster, cho c5s32 cells, fraction of untreated cultures (1.00), read-out: Cytotoxicity, normalized absorbance, Drug Resistant C5S32, 0 (no Act D); for viability at 96 h, 1 µM: 1 μM potentiating agent alone; for viability at 96 h, 10 µM: 10 μM potentiating agent alone
[3] = In vitro cytotoxicity / potentiation of Actinomycin D in human KB epidermoid carcinoma cells, drug resistant KB V-1 (MTT); assay type: cell-based; conditions: human, kb v-1 cells, fraction of untreated cultures, read-out: Cytotoxicity, normalized absorbance, Drug Resistant KB V-1, 0 (no Act D); for viability at 96 h, 1 µM: 1 μM potentiating agent alone; for viability at 96 h, 10 µM: 10 μM potentiating agent alone
[4] = system: human KB epidermoid carcinoma cells, drug resistant KB V-1; assay: as above; assay type: cell-based; conditions: 96 h, fraction of Act D alone
in vitro = assay type: cell-based, Chinese hamster; conditions: hamster, cho auxb1 cells
[5] = In vitro cytotoxicity / potentiation of Actinomycin D in human KB epidermoid carcinoma cells, wildtype KB 3-1 (MTT); assay type: cell-based; conditions: human, kb 3-1 cells, fraction of untreated cultures, read-out: Cytotoxicity, normalized absorbance, Wildtype KB 3-1, 0 (no Act D); for viability at 96 h, 1 µM: 1 μM potentiating agent alone; for viability at 96 h, 10 µM: 10 μM potentiating agent alone
[6] = system: human KB epidermoid carcinoma cells, wildtype KB 3-1; assay: as above; assay type: cell-based; conditions: 96 h, fraction of Act D alone
[7] = 1 μM potentiating agent + Act D 0.5 μM
[8] = 10 μM potentiating agent + Act D 0.5 μM
[9] = 1 μM potentiating agent + Act D 20 nM
[10] = 10 μM potentiating agent + Act D 20 nM

For `CN(C)CC/C=C1/c2ccccc2COc2ccc(Br)cc21.Cl.Cl.Cl` [(A), (Z)-3-(2-Bromo-6,11-dihydrodibenz [b,e]oxepin-11-ylidene)-N,N-dimethylpropylamine trihydrochloride], the “Synergism with Actinomycin D, normalized absorbance, Drug Resistant C5S32, +ACT D” value [1, 7] was 0.71, the “Synergism with Actinomycin D, normalized absorbance, Drug Resistant C5S32, +ACT D” value [1, 8] was 0.22 and the viability at 96 h, 1 µM [2] was 85%. It also gave a viability at 96 h, 10 µM [2] of 42%, a viability at 96 h, 1 µM [3] of 100% and a viability at 96 h, 10 µM [3] of 75%. For the same compound, the “Synergism with Actinomycin D, normalized absorbance, Drug Resistant KB V-1, +ACT D” value [4, 9] was 0.99, the “Synergism with Actinomycin D, normalized absorbance, Drug Resistant KB V-1, +ACT D” value [4, 10] was 0.21 and the viability at 96 h, 1 µM (in vitro) was 100%. For the same compound, the viability at 96 h, 10 µM (in vitro) was 100%, the viability at 96 h, 1 µM [5] was 99% and the viability at 96 h, 10 µM [5] was 98%. The “Synergism with Actinomycin D, normalized absorbance, Wildtype KB 3-1, +ACT D” value ([6]; 1 μM potentiating agent + Act D 0.1 nM) was 0.88 and the “Synergism with Actinomycin D, normalized absorbance, Wildtype KB 3-1, +ACT D” value ([6]; 10 μM potentiating agent + Act D 0.1 nM) was 1.00.
With `CN(C)CCC=C1c2ccccc2COc2ccccc21` [(W), doxepin, reference compound] the “Synergism with Actinomycin D, normalized absorbance, Drug Resistant C5S32, +ACT D” value [1, 7] was 0.86, the “Synergism with Actinomycin D, normalized absorbance, Drug Resistant C5S32, +ACT D” value [1, 8] was 0.48 and the viability at 96 h, 1 µM [2] was 98%. The viability at 96 h, 10 µM [2] was 55%, the viability at 96 h, 1 µM (in vitro) was 100% and the viability at 96 h, 10 µM (in vitro) was 100%.
In the case of `C(/CN1CCCC1)=C1\c2ccccc2COc2ccccc21` [(H), hydrochloride], the “Synergism with Actinomycin D, normalized absorbance, Drug Resistant C5S32, +ACT D” value [1, 7] is reported as 0.95, the “Synergism with Actinomycin D, normalized absorbance, Drug Resistant C5S32, +ACT D” value [1, 8] is reported as 0.51 and the viability at 96 h, 1 µM [2] is reported as 82%. It also gave a viability at 96 h, 10 µM [2] of 53%, a viability at 96 h, 1 µM (in vitro) of 100% and a viability at 96 h, 10 µM (in vitro) of 94%.
In the case of `CCN(CC)CC/C=C1\c2ccccc2COc2ccc(Br)cc21` [(N), (E) -3-(2-Bromo-6,11-dihydrodibenz [b,e]oxepin-11-ylidene)-N, N-diethylpropylamine], the “Synergism with Actinomycin D, normalized absorbance, Drug Resistant C5S32, +ACT D” value [1, 7] is reported as 0.85, the “Synergism with Actinomycin D, normalized absorbance, Drug Resistant C5S32, +ACT D” value [1, 8] is reported as 0.33 and the viability at 96 h, 1 µM [2] is reported as 100%. The viability at 96 h, 10 µM [2] was 80%, the viability at 96 h, 1 µM (in vitro) was 86% and the viability at 96 h, 10 µM (in vitro) was 83%.
With `CN(C)CC/C=C1/c2cc(Br)ccc2COc2ccc(Br)cc21` [(U), (Z)-3-(2,9-Dibromo-6,11-dihydrodibenz [b,e]-oxepin-11-ylidene)-N,N-dimethylpropylamine] the “Synergism with Actinomycin D, normalized absorbance, Drug Resistant C5S32, +ACT D” value [1, 7] was 0.93, the “Synergism with Actinomycin D, normalized absorbance, Drug Resistant C5S32, +ACT D” value [1, 8] was 0.24 and the viability at 96 h, 1 µM [2] was 94%. It also gave a viability at 96 h, 10 µM [2] of 74%, a viability at 96 h, 1 µM (in vitro) of 84% and a viability at 96 h, 10 µM (in vitro) of 79%.
In the case of `Brc1ccc2c(c1)/C(=C/CCN1CCCC1)c1ccccc1OC2` [(M), (Z)-1-[3-(9-Bromo-6,11-dihydrodibenz [b,e]-oxepin-11-ylidene)propyl]pyrrolidine], the “Synergism with Actinomycin D, normalized absorbance, Drug Resistant C5S32, +ACT D” value [1, 7] is reported as 0.83, the “Synergism with Actinomycin D, normalized absorbance, Drug Resistant C5S32, +ACT D” value [1, 8] is reported as 0.35 and the viability at 96 h, 1 µM [2] is reported as 86%. The viability at 96 h, 10 µM [2] was 100%, the viability at 96 h, 1 µM [3] was 95% and the viability at 96 h, 10 µM [3] was 65%. For the same compound, the “Synergism with Actinomycin D, normalized absorbance, Drug Resistant KB V-1, +ACT D” value [4, 9] was 1.00, the “Synergism with Actinomycin D, normalized absorbance, Drug Resistant KB V-1, +ACT D” value [4, 10] was 0.31 and the viability at 96 h, 1 µM (in vitro) was 79%. For the same compound, the viability at 96 h, 10 µM (in vitro) was 84%, the viability at 96 h, 1 µM [5] was 100% and the viability at 96 h, 10 µM [5] was 96%.
In the case of `CN(C)CC/C=C1\c2cc(Br)ccc2COc2ccc(Br)cc21` [(V), (E)-3-(2,9-Dibromo-6,11-dihydrodibenz [b,e]-oxepin-11-ylidene)-N,N-dimethylpropylamine], the “Synergism with Actinomycin D, normalized absorbance, Drug Resistant C5S32, +ACT D” value [1, 7] is reported as 0.87, the “Synergism with Actinomycin D, normalized absorbance, Drug Resistant C5S32, +ACT D” value [1, 8] is reported as 0.20 and the viability at 96 h, 1 µM [2] is reported as 91%. The viability at 96 h, 10 µM [2] was 75%, the viability at 96 h, 1 µM (in vitro) was 86% and the viability at 96 h, 10 µM (in vitro) was 77%.
